Results on ten molecules are retold here after PubChem BioAssay (NCI).

“And” between values parts separate entries of the source, which are not always exact repeats. Equal entries are not always repeated.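 Assay format: 96-well plates, 48-hour exposure. Here, GI50 denotes the concentration required for 50% inhibition of growth. TGI marks complete inhibition of growth.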 Some results are limits rather than exact numbers.

Among the test systems are 786-0 renal; TK-10 renal; HS 578T breast; MDA-MB-231 breast; RPMI-8226 leukemia; SK-OV-3 ovarian; CAKI-1 renal; A549 NSCLC.
What all share (assay): growth of human tumour cells (NCI), 48 h

Take `O=c1oc2ccc(F)cc2c(=O)n1-c1ccc(Br)cc1F`: the GI50 in the test on 786-0 renal was 2.79 µM; in the test on TK-10 renal it was 4.22 µM; in the test with HS 578T breast it was 0.621 µM; in the test on MDA-MB-231 breast, 0.434 µM; in the test with RPMI-8226 leukemia, 0.27 µM; in the test with SK-OV-3 ovarian, 0.427 µM. The GI50 in the test on CAKI-1 renal is 0.393 µM; in the test with A549 NSCLC it was 2.29 µM. Also, the TGI with 786-0 renal is 9.42 µM; in the test with TK-10 renal, 18 µM; in the test with HS 578T breast it was 7.87 µM; in the test with MDA-MB-231 breast, 7.28 µM; with RPMI-8226 leukemia, 1.05 µM; in the test on SK-OV-3 ovarian, 6.25 µM. Also, the TGI in the test with CAKI-1 renal was 3.69 µM; in the test with A549 NSCLC it was greater than 100 µM.
For `COC(=O)[C@H](Cc1ccccc1)NC(=O)c1csc([C@@H](C[C@H](C(C)C)N(C)C(=O)[C@@H](NC(=O)[C@H]2CCCN2C)C2CC2)OC(C)=O)n1`, the GI50 in the test on 786-0 renal is 0.746 µM; in the test on TK-10 renal, 4.18 µM; in the test with HS 578T breast, 0.122 µM; with MDA-MB-231 breast it was 0.577 µM; in the test with RPMI-8226 leukemia, 0.224 µM; in the test on SK-OV-3 ovarian it was 1.04 µM. The GI50 in the test on CAKI-1 renal is 0.793 µM; in the test with A549 NSCLC, 0.977 µM. The TGI was greater than 33.3 µM in the test with 786-0 renal; greater than 33.3 µM in the test on TK-10 renal; greater than 33.3 µM with HS 578T breast; greater than 12.9 µM in the test with MDA-MB-231 breast; greater than 33.3 µM in the test with RPMI-8226 leukemia; greater than 33.3 µM in the test on SK-OV-3 ovarian. For the same molecule, the TGI in the test with CAKI-1 renal and in the test with A549 NSCLC was greater than 33.3 µM in each case.
With `COc1ccc(C2ONC3=NCCN32)cc1` (stereo not given), the GI50 in the test with 786-0 renal is 25.5 µM; with TK-10 renal, greater than 100 µM; in the test with MDA-MB-231 breast it was greater than 100 µM; in the test with SK-OV-3 ovarian, 40.7 µM; in the test with CAKI-1 renal, 48.2 µM; in the test with A549 NSCLC, 86.9 µM. For the same molecule, the TGI in the test with 786-0 renal, with TK-10 renal, in the test on MDA-MB-231 breast, with SK-OV-3 ovarian, in the test on CAKI-1 renal and with A549 NSCLC was greater than 100 µM each time.
For the molecule `COc1ccc(/C=C(/C(=O)n2cnnn2)c2cc(OC)c(OC)c(OC)c2)cc1`, the GI50 in the test with 786-0 renal is 4.76 µM; with TK-10 renal, 7.59 µM; in the test with HS 578T breast it was 4.07 µM; with MDA-MB-231 breast, 4.7 µM; with RPMI-8226 leukemia it was 3.68 µM; in the test with SK-OV-3 ovarian it was 5.26 µM. Also, the GI50 is 4.15 µM in the test on CAKI-1 renal and 3.97 µM with A549 NSCLC. In addition, the TGI in the test with 786-0 renal, in the test on TK-10 renal, in the test on HS 578T breast, in the test on MDA-MB-231 breast, with RPMI-8226 leukemia and in the test on SK-OV-3 ovarian was greater than 100 µM in each case. Also, the TGI in the test on CAKI-1 renal and with A549 NSCLC was greater than 100 µM each time.
Consider `COc1cc(O)c(C(C)=O)c(O)c1`, for which the TGI in the test on 786-0 renal, with TK-10 renal, in the test on HS 578T breast, in the test on SK-OV-3 ovarian and in the test on A549 NSCLC was greater than 100 µM each time.
On to `CC[C@H](C)[C@H](NC(=O)[C@H]1CCCCN1C)C(=O)N(C)[C@H](C[C@@H](OC(C)=O)c1nc(C(=O)N[C@@H](Cc2ccccc2)C[C@H](C)C(=O)OC)cs1)C(C)C`, for which the GI50 with 786-0 renal was 0.000366 µM and 0.0025 µM; with TK-10 renal, 0.0254 µM; in the test on HS 578T breast, 0.000504 µM and 0.0025 µM; in the test on MDA-MB-231 breast, 0.00102 µM and 0.0025 µM; in the test with SK-OV-3 ovarian, 0.000264 µM and 0.0025 µM; with CAKI-1 renal, 0.000792 µM. In the test on A549 NSCLC, the GI50 was 0.000523 µM and 0.0025 µM. For the same molecule, the TGI is 14.8 µM with 786-0 renal; 6.9 µM with HS 578T breast; greater than 25 µM with MDA-MB-231 breast; 8.97 µM in the test on RPMI-8226 leukemia; greater than 25 µM in the test with SK-OV-3 ovarian; greater than 25 µM in the test on A549 NSCLC.
Regarding `CCc1cccc(CC)c1/C=C/c1cncc(C(=O)NC)c1`, the GI50 in the test with 786-0 renal was 14.2 µM; in the test with TK-10 renal, greater than 18.2 µM; in the test with HS 578T breast, 7.65 µM; with MDA-MB-231 breast, 13.2 µM; in the test on RPMI-8226 leukemia, 9.46 µM; in the test on SK-OV-3 ovarian, 8.75 µM. Also, the values for the GI50 with CAKI-1 renal and with A549 NSCLC were 9.62 µM and 9.3 µM, respectively. The TGI in the test with 786-0 renal, in the test on TK-10 renal, in the test on HS 578T breast, with MDA-MB-231 breast, with RPMI-8226 leukemia and with SK-OV-3 ovarian was greater than 25 µM in each case. Also, the TGI in the test with CAKI-1 renal and in the test on A549 NSCLC was greater than 25 µM throughout.
For `CN(C)CCCC1(c2ccc(F)cc2)OCc2cc(-c3cncc4ccccc34)ccc21` (stereo not given), the GI50 was 2.71 µM with 786-0 renal; 2.83 µM in the test on TK-10 renal; 2.78 µM in the test on HS 578T breast; 2.1 µM in the test on MDA-MB-231 breast; 2.51 µM in the test on RPMI-8226 leukemia; 5.48 µM in the test on SK-OV-3 ovarian. Also, the results for the GI50 in the test with CAKI-1 renal and with A549 NSCLC were 2 µM and 3.92 µM, respectively. Besides, the TGI in the test with 786-0 renal was found to be 9.72 µM; with TK-10 renal, 12.2 µM; in the test on HS 578T breast, 11.6 µM; in the test with MDA-MB-231 breast it was 6.57 µM; in the test on RPMI-8226 leukemia, 5.96 µM; with SK-OV-3 ovarian, 18.8 µM. Moreover, the TGI in the test with CAKI-1 renal came out at 5.88 µM; with A549 NSCLC, 16.2 µM.
On to `Cn1cc(CO)c2ccccc21`, for which the GI50 was greater than 100 µM with 786-0 renal; greater than 100 µM in the test on TK-10 renal; 38.5 µM in the test on HS 578T breast; 52 µM with MDA-MB-231 breast; 99.9 µM in the test on RPMI-8226 leukemia; 77.5 µM in the test with SK-OV-3 ovarian. The figures for the GI50 in the test on CAKI-1 renal and in the test with A549 NSCLC were 18.3 µM and 64.3 µM, respectively. The TGI in the test on 786-0 renal, in the test with TK-10 renal, with HS 578T breast, with MDA-MB-231 breast, in the test on RPMI-8226 leukemia and in the test with SK-OV-3 ovarian was greater than 100 µM each time. The TGI with CAKI-1 renal and in the test with A549 NSCLC was greater than 100 µM each time.
Regarding `COc1ccc(-c2cc(/C=C/C(=O)c3cc(OC)c(OC)c(OC)c3)[nH]n2)cc1OC`, the GI50 in the test on 786-0 renal was 1.5 µM; in the test with TK-10 renal, 3.27 µM; with HS 578T breast, 2.91 µM; in the test with MDA-MB-231 breast it was 2.02 µM; in the test with RPMI-8226 leukemia, 0.298 µM; in the test with SK-OV-3 ovarian, 5.47 µM. Besides, in the test on A549 NSCLC, the GI50 was 2.39 µM. Besides, the TGI came out at 2.9 µM with 786-0 renal; 11.8 µM in the test on TK-10 renal; 22.2 µM in the test with HS 578T breast; 13.5 µM in the test with MDA-MB-231 breast; 1.66 µM in the test with RPMI-8226 leukemia; 19 µM in the test on SK-OV-3 ovarian. This molecule also gave a TGI in the test with A549 NSCLC of 9.34 µM.
